Assay results as given in publication PMC11955804, “Histidine-rich enantiomeric peptide coacervates enhance antigen sequestration and presentation to T cells” (Chemical Science, 2025).

Legend:
[1] = system: BMDCs overlaid with DOBW cells; assay: In vitro antigen presentation assay, MHC class II (BMDCs + DOBW hybridoma, IL-2 ELISA); conditions: DOBW overlay; for IL-2 levels at 4 °C compared to 37 °C controls: OVA-loaded coacervates, DCs at 4 °C, ELISA
Protocol: To test internalization mechanisms, we utilized in vitro antigen presentation assays (Fig. 4A). Here, bone marrow-derived dendritic cells (BMDCs) are treated with coacervates loaded with the model antigen ovalbumin (OVA). […] Secretion of IL-2 in response to peptide-MHC recognition is an indirect measure of coacervate uptake and can be quantified using ELISA (enzyme-linked immunosorbent assay) (Fig. 4A). […] We next used pharmacological inhibitors of endocytic mechanisms to explore mechanisms of cell entry (Fig. 4E). BMDCs were treated with inhibitors of clathrin-mediated endocytosis (chlorpromazine, CPZ),[58] dynamin-dependent endocytosis (dynasore, Dyn),[59] macropinocytosis (wortmannin, Wort),[60] cholesterol (methyl β-CD),[61] and IPA3 the regulatory domain of PAK1 (IPA-3)[62] for one h prior to antigen presentation assays.
Cellular uptake and antigen presentation assays
Uptake of coacervates by BMDCs was measured using in vitro antigen presentation assays.
BMDCs were plated in 96-well round-bottom plates (1×10^5 cells/well) and maintained at 4°C or
treated with 10 mM deoxy glucose and 10 mM sodium azide in PBS (ATP depletion) for 1 h prior
to addition of OVA-loaded coacervates. Final OVA concentration was 1 g/mL for time-
dependent measurements and 10 g/mL for comparison between enantiomers. Cells maintained at
37°C and complete RPMI media served as controls. Soluble OVA and PBS treated cells were used as controls for antigen delivery. Following treatment (2 h, 4 h, 24 h, 48 h, or 72 h), BMDCs were
washed to remove extracellular coacervates and DOBW hybridoma cells (1:5, DC: DOBW) were
overlaid for 16 h. The cells were then centrifuged at 300 × g for 5 min, and the supernatant was
collected for IL-2 quantitation by ELISA according to the manufacturer protocol (Biotechne,
#DY402). The amount of IL-2 produced under each condition was measured.
Inhibition of coacervate uptake was measured by adding the inhibitors 1 h
prior to coacervate treatment for 24 h followed by hybridoma overlay and IL-2 measurements.

[2] = Rheology testing of coacervate suspensions; type: physicochemical
Protocol: NaCl) was used to study ionic strength effects. The absorbance was further converted to turbidity using methods previously described 1 and data was plotted as relative turbidity.
Optical microscopy and dynamic light scattering (DLS)
Droplets were visualized in 1×PBS using NCI Leica DMC4500 microscope in reflection mode with differential interference contrast. Images were captured with a DMC4500 camera under the control of Leica LAS X software (version 3.4.2). Coacervate size was measured using 1 mM peptide solutions (1×PBS, pH 7.4) on a ZEN 3600 Zetasizer (Malvern Instruments, UK) using DLS-Zen 0040 specialized cuvettes. The results were reported as the means of three measurements, with 14 scans for each measurement.
Transmission electron microscopy (TEM)
Peptide solutions prepared for TEM were applied directly to 200-mesh, carbon-coated copper grids for 2 min and stained with 1% uranyl formate for 1 min. Excess stain was blotted using filter paper. Brightfield images were taken with a JEOL JEM-1400 transmission electron microscope with a NANOSPRT15 camera at an accelerating voltage of 120 kV.
Viscosity of the peptide solutions (1 mM or 2 mM) was tested using an ARES 2000ex rotational rheometer (TA Instruments, New Castle, DE). Peptides were freshly solubilized, and 170 µL of each was pipetted onto the rheometer stage. A 20-mm parallel plate geometry was lowered to a gap of 200 µm. Storage modulus (G′) and loss modulus (G″) were measured as a function of angular frequency (1–10 rad/s) with 1% strain. Viscosity was measured as a function […]
of shear rate (1–100 s-1). Separately, viscosity was measured using a Hagen-Poiseuille viscometer (RheoSense microVISC, San Ramon, CA) at a shear rate of 2500 s-1 to confirm viscosity differences at two different concentrations (1 mM and 2 mM).
Computational simulations
All simulations were performed using GROMACS 2023 2,3 and the CHARMM36m 4 force field. The necessary force field parameters and input files were generated using AlphaFold 5 predicted structures coupled with CHARMM-GUI 6. A single peptide chain was solvated in a 5-nm cubic box. […]

[3] = Critical concentration (Ccrit) of coacervate formation; type: physicochemical; conditions: 1× PBS, pH 7.4; enantiomeric variants identical
From the text: Peptide synthesis and purification
The L- and D-enantiomers of (GHGLY)4, (GHGVY)4 and (GHGPY)4 peptides were purchased from GenScript and used without further modification. (GHGAY)4, (GHGFY)4, (GHGIY)4 and (GHGNY)4 were synthesized using standard Fmoc-SPPS chemistry on Rink Amide with Oxyma (Ethyl cyano(hydroxyimino) acetate) and N, N′-diisopropylcarbodiimide (DIC) as coupling agents on a Liberty Blue microwave-assisted synthesizer. Peptides were cleaved using a cocktail of trifluoroacetic acid (TFA), tri-isopropyl silane (TIS), and H2O (95:2.5:2.5) and extracted and washed in cold diethyl ether. The resulting pellet was dissolved in acetonitrile/water mixture (50:50) and frozen prior to lyophilization. Peptides were purified (~90%) using High Performance Liquid Chromatography (HPLC) on a Dionex Ultimate 3000 HPLC equipped with a diode-array detector on an Agilent Poroshell RP-C18 column (4.6 mm×150 mm), operating at a flow rate of 1 mL/min. Peaks corresponding to 220 nm were collected for MALDI -TOF mass analysis (Shimadzu MALDI-8030) using α-cyno-4-hydroxycinnamic acid matrix (Bruker Daltonics, MA).
Peptide solutions (0.25–1.5 mM) were prepared in 1×PBS at pH 7.4. Aliquots (140 µL) were pipetted into a 96-well plate and absorbance at 600 nm was measured over 24 h using a Synergy HT plate reader (Biotek, USA) at RT or 37°C with or without agitation. The pH dependence of LLPS formation was assessed in 0.1 M potassium phosphate buffer (with 150 mM NaCl) at different pH values (5.8, 6.6, 7.4, 8.0) and 1 mM peptide concentration. Similarly, 0.1 M potassium phosphate buffer (pH 7.4) with varying salt concent rations (0, 150, 250, 500, 1000 mM […]
Figure S10. Determination of Ccrit for (a) (GHGLY)4, (b) (GHGVY)4, (c) (GHGPY)4 and (d-f) their corresponding enantiomers (1 mM, 1× PBS, pH 7.4).
Table S1. Measured Ccrit values for (GHGXY)4 peptides used in this study.
(1 picture or pasted object on this page, not shown here)

[4] = Dynamic light scattering (DLS) droplet size; type: physicochemical; conditions: 1 mM peptide, 1× PBS, pH 7.4; mean of 3 measurements with 14 scans each; identical for each pair of enantiomers
Protocol: Optical microscopy and dynamic light scattering (DLS) […]
Coacervate size was measured using 1 mM
peptide solutions (1×PBS, pH 7.4) on a ZEN 3600 Zetasizer (Malvern Instruments, UK) using
DLS-Zen 0040 specialized cuvettes. The results were reported as the means of three
measurements, with 14 scans for each measurement. […]

[5] = angular frequency 1–10 rad/s, 1% strain

| Substance | IL-2 levels at 4 °C compared to 37 °C controls [1] | fold increase in G′ compared to valine droplets [2, 5] | viscosity of coacervate suspension ([2]; parallel plate rheology at fixed shear rate, 1 or 2 mM peptide, compared to valine or proline variants) | critical concentration (Ccrit) of coacervate formation [3] | droplet size (DLS) [4] | IL-2 production compared to (GHGLY)4 at the same antigen dose ([1]; coacervates loaded with 1 μM OVA, pre-treatment 2-72 h) | fold increase in G′ compared to proline [2, 5] |
| --- | --- | --- | --- | --- | --- | --- | --- |
| (GHGLY)4 [GL 20] | significantly lower IL-2 levels | ~3 fold | greater viscosity | 0.5 mM | ~1.8 μm |  |  |
| (GHGVY)4 [GV 20] | significantly lower IL-2 levels |  |  | 0.75 mM | ~1.0 μm | significantly higher | 2 fold |
